Data from ChEMBL document CHEMBL3877248, “Further investigation of inhibitors of MRSA pyruvate kinase: Towards the conception of novel antimicrobial agents” (Eur J Med Chem, 2017).
Values after ≈ are worked out from the molar mass of the structure shown.

Key:
[1] = molecular target: T1, Pyruvate kinase (Staphylococcus aureus (strain MRSA252)) (UniProt Q6GG09); experiment: Inhibition of recombinant N-terminal His-tagged methicillin-resistant Staphylococcus aureus MRSA252 pyruvate kinase expressed in Escherichia coli BL21(DE3) at 1 uM using PEP as substrate measured after 5 mins by LDH-coupled assay relative to control; settings: Staphylococcus aureus subsp. aureus MRSA252
T1 sequence (whole entry): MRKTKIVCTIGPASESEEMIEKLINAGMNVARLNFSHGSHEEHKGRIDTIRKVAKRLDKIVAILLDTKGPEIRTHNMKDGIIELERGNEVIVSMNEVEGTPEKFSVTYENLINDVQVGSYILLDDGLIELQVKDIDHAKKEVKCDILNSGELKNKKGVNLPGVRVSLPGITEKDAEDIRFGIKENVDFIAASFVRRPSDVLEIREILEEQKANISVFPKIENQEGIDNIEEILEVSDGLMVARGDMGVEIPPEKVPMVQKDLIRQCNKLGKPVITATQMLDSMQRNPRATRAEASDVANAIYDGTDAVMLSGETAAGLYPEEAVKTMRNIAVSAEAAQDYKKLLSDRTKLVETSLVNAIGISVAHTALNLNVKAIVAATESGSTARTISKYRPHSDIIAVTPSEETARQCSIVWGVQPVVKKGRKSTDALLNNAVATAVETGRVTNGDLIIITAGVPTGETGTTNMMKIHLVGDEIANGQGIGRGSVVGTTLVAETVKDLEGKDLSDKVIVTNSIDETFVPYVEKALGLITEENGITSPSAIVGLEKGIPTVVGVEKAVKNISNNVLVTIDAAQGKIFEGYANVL

Staphylococcus aureus [2] = experiment: Antibacterial activity against Staphylococcus aureus ATCC 29213 measured after 24 hrs by two-fold microbroth dilution method; assay type: functional
Pyruvate kinase = molecular target: T2, Pyruvate kinase (Staphylococcus aureus (strain MRSA252), UniProt Q6GG09); experiment: Inhibition of recombinant N-terminal His-tagged methicillin-resistant Staphylococcus aureus MRSA252 pyruvate kinase expressed in Escherichia coli BL21(DE3) using PEP as substrate measured after 5 mins by LDH-coupled assay; design: species or system Staphylococcus aureus subsp. aureus MRSA252
T2 sequence (Q6GG09 whole entry): T1 sequence (whole entry)

[3] = molecular target: T1, Pyruvate kinase (Staphylococcus aureus (strain MRSA252)); experiment: Inhibition of recombinant N-terminal His-tagged methicillin-resistant Staphylococcus aureus MRSA252 pyruvate kinase expressed in Escherichia coli BL21(DE3) at 0.1 uM using PEP as substrate measured after 5 mins by LDH-coupled assay relative to control; settings: Staphylococcus aureus subsp. aureus MRSA252
Staphylococcus aureus [4] = experiment: Antibacterial activity against methicillin-resistant Staphylococcus aureus MRSA252 by two-fold microbroth dilution method; assay type: functional
[5] = Selectivity ratio for inhibition of recombinant N-terminal His-tagged methicillin-resistant Staphylococcus aureus MRSA252 pyruvate kinase over inhibition of human recombinant N-terminal His-tagged pyruvate kinase M1
[6] = Selectivity ratio for inhibition of recombinant N-terminal His-tagged methicillin-resistant Staphylococcus aureus MRSA252 pyruvate kinase over inhibition of human recombinant N-terminal His-tagged pyruvate kinase M2
[7] = Selectivity ratio for inhibition of recombinant N-terminal His-tagged methicillin-resistant Staphylococcus aureus MRSA252 pyruvate kinase over inhibition of human recombinant N-terminal His-tagged pyruvate kinase-R
[8] = Selectivity ratio for inhibition of recombinant N-terminal His-tagged methicillin-resistant Staphylococcus aureus MRSA252 pyruvate kinase over inhibition of human recombinant N-terminal His-tagged pyruvate kinase-L
[9] = molecular target: T1, Pyruvate kinase (Staphylococcus aureus (strain MRSA252)); experiment: Inhibition of recombinant N-terminal His-tagged methicillin-resistant Staphylococcus aureus MRSA252 pyruvate kinase expressed in Escherichia coli BL21(DE3) at 10 uM using PEP as substrate measured after 5 mins by LDH-coupled assay relative to control; settings: Staphylococcus aureus subsp. aureus MRSA252

SMILES	inhibition [1] [%]	MIC>98 (Staphylococcus aureus [2]) [µg/mL]	IC50 (Pyruvate kinase) [nM]	also measured
COc1ccc(Br)cc1-c1cccc(-c2cc3ccccc3[nH]2)n1	6	>64		
Oc1ccc(Br)cc1/C=N/c1nc2ccc(Br)cc2s1	41	64 (≈ 155 µM)		
O=C(c1ncc(-c2c[nH]c3cc(Br)ccc23)[nH]1)c1c[nH]c2ccccc12 [BROMODEOXYTOPSENTIN]			60	
O=C(/C=C/c1cc(Br)ccc1O)c1cc2ccc(Br)cc2[nH]1		1 (≈ 2.37 µM)	24	
O=C(Nc1nc2ccccc2s1)c1cc(Br)ccc1O	13	>64		
O=C(Nc1nc2cc(Br)ccc2s1)c1cc(Br)ccc1O	48	>64		
O=C(/C=C/c1cc2ccc(Br)cc2[nH]1)c1cc2ccccc2[nH]1	38	>64		
Brc1ccc(-c2c[nH]c3ccc(Br)cc23)cc1		1 (≈ 2.85 µM)		inhibition [3]: 20%
O=C(Nc1nc2ccc(Br)cc2s1)c1cc(Br)cc(Br)c1O		1 (≈ 1.97 µM)	4	
COc1c(Br)cccc1C(=O)Nc1nc2ccc(Br)cc2s1	22	>64		
O=C(/C=C/c1c[nH]c2cc(Br)ccc12)c1cc2ccccc2[nH]1	45			
O=C(Nc1nc2ccc(Br)cc2s1)c1cc2ccccc2[nH]1		>64		
O=C(/C=C/c1cc2ccc(Br)cc2[nH]1)c1ccc(Br)cc1O		>64	132	
COc1ccc(Br)cc1/C=C/C(=O)c1cc2ccc(Br)cc2[nH]1		>64	8	
Oc1ccc(Br)cc1-c1ccnc(-c2cc3ccc(Br)cc3[nH]2)c1		>64		inhibition [3]: 41%
O=C1c2ccc(Br)cc2C(=O)N1c1nc2ccc(Br)cc2s1	34	>64		
Brc1ccc(-c2cc3cc(Br)ccc3[nH]2)cc1	21			
O=C(/C=C/c1cc2ccc(Br)cc2[nH]1)c1cc2cc(Br)ccc2[nH]1	21	>64		
O=C(Nc1nc2cc(Br)ccc2s1)c1cc2ccccc2[nH]1		>64		
Oc1c(Br)cccc1CNc1nc2ccc(Br)cc2s1	17			

SMILES	inhibition [1] [%]	MIC>98 (Staphylococcus aureus [2]) [µg/mL]	IC50 (Pyruvate kinase) [nM]	also measured
O=C(/C=C/c1c[nH]c2ccc(Br)cc12)c1cc2ccccc2[nH]1		>64	1780	
O=C(/C=C/c1cc(Br)ccc1O)c1cc2ccccc2[nH]1		2 (≈ 5.84 µM)	355	
O=C(Nc1ccc(Br)cc1)c1cc2ccc(Br)cc2[nH]1		>64	10	
O=C(Nc1cc(Br)ccc1O)c1cc2ccccc2[nH]1	28			
O=C(Nc1cc(Br)ccc1O)c1cc2ccc(Br)cc2[nH]1		>64	12	
O=C(/C=C/c1cc2ccc(Br)cc2[nH]1)c1ccccc1O		>64	343	
O=C(/C=C/c1ccc(Br)cc1O)c1cc2ccc(Br)cc2[nH]1		>64	14	
O=C(Nc1nc2cc(Br)ccc2[nH]1)c1cc(Br)ccc1O		4 (≈ 9.73 µM)	11	
O=C(Nc1ccc(Br)cc1)c1cc2ccccc2[nH]1	41	>64		
Cn1c(C(=O)Nc2nc3ccc(Br)cc3s2)cc2ccccc21	41	>64		
COc1ccc(Br)cc1C(=O)Nc1nc2ccc(Br)cc2s1		>64	8	
O=C(/C=C/c1cc2ccc(Br)cc2[nH]1)c1cc2ccc(Br)cc2[nH]1	6			
O=C(/C=C/c1cc2ccccc2[nH]1)c1cc(Br)ccc1O	10			
O=C(Nc1nc2cc(Br)ccc2[nH]1)c1cc2cc(Br)ccc2[nH]1		>64	3	
O=C(Nc1ccc(Br)cc1)c1cc2ccc(Br)cc2s1		>64		inhibition [3]: 43%
O=C(/C=C/c1cc2ccccc2[nH]1)c1cc2ccc(Br)cc2[nH]1		>64	5	
O=C(/C=C/c1cc2ccc(Br)cc2[nH]1)c1cc(Br)ccc1O	15	>64		
O=C(/C=C/c1c[nH]c2ccc(Br)cc12)c1c[nH]c2ccccc12	1			
O=C(Nc1nc2cc(Br)ccc2s1)c1cc2cc(Br)ccc2[nH]1		>64	8	
O=C(Nc1nc2ccc(Br)cc2s1)c1cc(Br)ccc1O		>64		

SMILES	inhibition [1] [%]	MIC>98 (Staphylococcus aureus [2]) [µg/mL]	IC50 (Pyruvate kinase) [nM]	also measured
COc1ccc(Br)cc1/C=C1\CCc2c([nH]c3ccccc23)C1=O	22			
Oc1ccc(Br)cc1-c1nnc(-c2cc3ccccc3[nH]2)o1	8	>64		
O=C(/C=C/c1cccc(Br)c1O)c1cc2ccc(Br)cc2[nH]1		>64	403	
O=C(Nc1nc2ccc(Br)cc2s1)c1ccc(Br)cc1O		>64		
O=C(/C=C/c1cc2ccc(Br)cc2[nH]1)c1cccc(Br)c1O	41	>64		
COc1ccc(Br)cc1-c1nnc(-c2cc3ccccc3[nH]2)o1	19	>64		
O=C(Nc1nc2ccc(Br)cc2s1)c1cccc(Cl)c1O		4 (≈ 10.4 µM)		inhibition [3]: 43%
CN(C(=O)c1cc(Br)ccc1O)c1nc2ccc(Br)cc2s1	5			
O=C1NC[C@@H](c2c[nH]c3cc(Br)ccc23)N[C@H]1c1c[nH]c2cc(Br)ccc12 [CIS-3,4-DIHYDROHAMACANTHIN B]				MIC (Staphylococcus aureus [4]): 12.5 µg/mL (≈ 25.6 µM); Selectivity ratio [5]: 166 to 600; Selectivity ratio [6]: 166 to 600; Selectivity ratio [7]: 166 to 600; Selectivity ratio [8]: 166 to 600
O=C(Nc1nc2ccc(Br)cc2s1)c1cc2cc(Br)ccc2[nH]1		>64	23	
Brc1ccc(-c2c[nH]c3cc(Br)ccc23)cc1		2 (≈ 5.7 µM)		
O=C(Nc1cccc(Br)c1O)c1cc2ccc(Br)cc2[nH]1		>64		
O=C(/C=C/c1cc2ccccc2[nH]1)c1cccc(Br)c1O				inhibition [9]: 2%
O=C(Nc1nc2cc(Br)ccc2[nH]1)c1cc2ccc(Br)cc2[nH]1		>64	2	
O=C(Nc1nc2ccc(Br)cc2s1)c1cccc(Br)c1O		4 (≈ 9.34 µM)		
O=C(/C=C/c1cc2ccccc2[nH]1)c1ccc(Br)cc1O		>64	553	
O=C(/C=C/c1c[nH]c2cc(Br)ccc12)c1c[nH]c2ccccc12	28			
O=C(Nc1nc2ccc(Br)cc2s1)c1ccccc1O	65	>64		
